Source: publication PMC9636949 (Proceedings of the National Academy of Sciences of the …, 2022)

What was measured:
[1] = biological target: T1, human α7-AChR (Homo sapiens, UniProt P36544); type: binding; details: read-out: Unlabeled-ligand half-competition concentration; pH 7.4
[2] = biological target: T1, human α7-AChR; details: pH 7.4; cited from earlier work

T1 sequence (P36544 23-502): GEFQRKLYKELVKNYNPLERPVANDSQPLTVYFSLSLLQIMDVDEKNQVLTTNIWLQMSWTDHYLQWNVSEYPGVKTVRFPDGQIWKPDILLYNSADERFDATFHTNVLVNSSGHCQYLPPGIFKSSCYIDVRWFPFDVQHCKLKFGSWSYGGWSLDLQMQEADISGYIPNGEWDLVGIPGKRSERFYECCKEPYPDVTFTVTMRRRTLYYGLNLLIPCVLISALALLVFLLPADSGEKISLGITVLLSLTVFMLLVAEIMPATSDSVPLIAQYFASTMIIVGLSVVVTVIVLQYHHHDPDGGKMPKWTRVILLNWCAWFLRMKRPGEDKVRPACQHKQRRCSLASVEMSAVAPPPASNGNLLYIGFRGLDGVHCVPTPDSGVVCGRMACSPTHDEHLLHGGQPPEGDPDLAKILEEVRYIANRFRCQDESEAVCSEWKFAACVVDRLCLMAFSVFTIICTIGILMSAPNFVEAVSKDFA

Compound	IC50 [1]	Unlabeled-ligand nH (Hill coefficient) [2]
CC[N+](C)(C)C [ETMA]	15.6 ± 1.09 µM	–
C[N+](C)(C)C [TMA, tetramethylammonium]	11.4 ± 1.33 µM	–
C[N+](C)(C)CCO [Choline, choline]	–	1.28 ± 0.08
CN1CCC[C@H]1c1cccnc1 [Nicotine, nicotine]	–	1.41 ± 0.06
